Measured values from patent US20230372296A1, “COMPOSITIONS AND METHODS FOR ANXIETY DISORDER TREATMENT” (PSILOBRAIN THERAPEUTICS INC., priority 2020, published 2023).

System: C57BL/6 mice
Test: elevated plus maze model of anxiety disorder
Assay type: in vivo
Source text: The dosage ranges are based upon our preclinical rodent studies testing the anti-anxiety effects of formula (I) and crocin (across varying doses and combinations) on mouse behavior in the elevated plus maze task (see FIG. 1). The elevated plus maze is one of the most widely used tests for measuring anxiety-like behavior and the anti-anxiety effects of pharmacological agents and is based on the natural aversion of mice for open and elevated areas, as well as their natural spontaneous exploratory activity in novel environments. […] Finally, these dosage ranges, as identified from our preclinical studies are commensurate with clinical dosages safely prescribed in humans.
The elevated plus maze model is a behavioral assay for rodents which has been used to assess the […] effect of pharmacological agents. In the model, anxiety behavior of rodents is assessed by determining the ratio of time spent on the arms relative to the time spent in the closed arms of the elevated plus maze structure. The model relies on rodents' affinity to dark, enclosed spaces.
In the elevated plus model, C57BL/6 mice, aged between 6 and 7 weeks were acclimated for at least five days and assigned randomly to treatment groups. Mice were housed on a 12 hour light/dark cycle. No more than 4 mice were kept in each ventilated cage. Mice were provided with standard rodent chow and water ad libitum. Test compounds were administered through the oral route in a volume of 10 milliliters per kilogram (ml/kg) and were formulated in 0.9% saline. 12 groups of mice were tested in the model, each group consisting of 10 mice. After acclimation, test compositions were administered to the animals in the amounts, in milligram per kilogram of mouse weight (mg/kg) according to table 1.
As shown in the table, Group 1 was administered vehicle only. Groups 2 through 7 were administered various combinations of psilocybin and crocin. Groups 8-12 were administered either psilocybin alone or crocin alone. Behavioral testing was performed between 7-9 days after administration of the compounds.
Testing was performed in dim light of 40 lux. The elevated plus maze consists of two open and two closed arms (arm length: 30 cm; width: 5 cm). Open arms have a small 1 cm edge and the closed arms are bordered by a 15 cm wall. At the beginning of the task, mice were placed in the center of the elevated plus maze facing an open arm. Mice were video tracked while exploring the maze for 5 min. The time spent in the open and closed arms was measured and analyzed.
Comparisons were performed using 1 w-ANOVA, Fisher's LSD test. Significance is shown with a single asterisk if P<0.05, with a double asterisk if P<0.01, and with a triple asterisk if P<0.001.

Compound	time in open arms of elevated plus maze vs vehicle (crocin alone 30 mg/kg oral, tested 7-9 days after administration, 5 min)	time in open arms of elevated plus maze vs vehicle (crocin alone 50 mg/kg oral, tested 7-9 days after administration, 5 min)	time in open arms of elevated plus maze vs vehicle (psilocybin 0.5 mg/kg and higher, administered on its own)	time in open arms of elevated plus maze vs vehicle (psilocybin alone 0.1 mg/kg oral, tested 7-9 days after administration, 5 min)	time in open arms of elevated plus maze vs vehicle (psilocybin alone 0.5 mg/kg oral, tested 7-9 days after administration, 5 min)	time in open arms of elevated plus maze vs vehicle (psilocybin alone 1 mg/kg oral, tested 7-9 days after administration, 5 min)
CC(/C=C/C=C(\C)C(=O)O[C@@H]1O[C@H](CO[C@@H]2O[C@H](CO)[C@@H](O)[C@H](O)[C@H]2O)[C@@H](O)[C@H](O)[C@H]1O)=C\C=C\C=C(C)\C=C\C=C(/C)C(=O)O[C@@H]1O[C@H](CO[C@@H]2O[C@H](CO)[C@@H](O)[C@H](O)[C@H]2O)[C@@H](O)[C@H](O)[C@H]1O [crocin, Crocin]	did not show a significant beneficial effect on anxiety	did not show a significant beneficial effect on anxiety				
CN(C)CCc1c[nH]c2cccc(OP(=O)(O)O)c12 [psilocybin, Psilocybin]			either no changes in mouse behavior were observed, or increased anxiety-like behavior	no significant difference	significant reduction in open arm time	significant reduction in open arm time
